Laboratory results published in patent publication US20240000806A1, “METHODS AND MATERIALS FOR INHIBITING CB1 ACTIVITY” (University of Pittsburgh - Of the Commonwealth System of …, priority 2020, published 2024).

target: CB1 (CNR1) (Homo sapiens, UniProt P21554); assay: cAMP CNR1 Hunter cell line antagonist assay (CB1 assay); format: cell-based; details: antagonist mode, cAMP CNR1 Hunter cells, EC80 agonist; read-out: CB1 assay, Efficacy (IC50)
Experimental: cAMP CNR1 Hunter cell line (Eurofins DiscoveryX) were expanded from freezer stocks and seeded in a total volume of 20 μL into white walled, 384-well microplates and incubated at 37° C. for the appropriate time prior to testing. For antagonist determination, cell media was aspirated from cells and replaced with 10 μL 1:1 HBSS/Hepes:cAMP XS+Ab reagent. 5 μL of 4× compound was added to the cells and incubated at 37° C. for 30 minutes. 5 μL of 4× EC80 agonist was added to cells and incubated at 37° C. for 30 minutes. After appropriate compound incubation, assay signal was generated through incubation with 20 μL cAMP XS+ED/CL lysis cocktail for one hour followed by incubation with 20 μL cAMP XS+EA reagent for three hours at room temperature. Microplates were read following signal generation with a PerkinElmer Envision™ instrument for chemiluminescent signal detection. Compound activity (IC50) was analyzed using CBIS data analysis suite (ChemInnovation, CA).

Chain of CB1 (CNR1) (P21554 whole entry): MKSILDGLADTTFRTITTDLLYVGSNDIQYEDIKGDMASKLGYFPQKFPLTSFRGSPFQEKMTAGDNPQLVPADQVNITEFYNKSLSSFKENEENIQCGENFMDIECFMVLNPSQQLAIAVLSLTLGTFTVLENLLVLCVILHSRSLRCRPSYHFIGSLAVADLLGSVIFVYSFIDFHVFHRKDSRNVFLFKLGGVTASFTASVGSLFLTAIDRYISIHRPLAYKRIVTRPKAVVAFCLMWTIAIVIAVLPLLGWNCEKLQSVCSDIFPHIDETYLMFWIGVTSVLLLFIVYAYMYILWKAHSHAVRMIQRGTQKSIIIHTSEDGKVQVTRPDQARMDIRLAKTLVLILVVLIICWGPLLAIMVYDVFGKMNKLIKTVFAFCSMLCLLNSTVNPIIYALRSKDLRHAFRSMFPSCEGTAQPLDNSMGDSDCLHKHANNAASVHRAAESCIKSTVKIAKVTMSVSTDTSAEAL

SMILES | IC50 [µM]
O=C1COc2c(cc(Br)cc2S(=O)(=O)Nc2ccc(F)cc2F)N1 [BC19178] | < 1
CC1Oc2cc(S(=O)(=O)Nc3cccc(F)c3)c(Br)cc2N(C)C1=O (stereo not shown) [BC19903] | 1 to 25
CC1Oc2cc(S(=O)(=O)Nc3ccc(OC(F)(F)F)cc3)c(Br)cc2N(C)C1=O (stereo not shown) [BC19784] | ≥ 25
COc1ccc(NS(=O)(=O)c2cc(Br)cc3c2OC(C)C(=O)N3C)cc1Cl (stereo not shown) [BC19909] | ≥ 25
COc1ccc(NS(=O)(=O)c2cc3c(cc2Br)NC(=O)CCO3)cc1Cl [BC19694] | 1 to 25
CCS(=O)(=O)c1cc2c(c(S(=O)(=O)Nc3ccc(Cl)cc3)c1)OCC(=O)N2 [BC19491] | ≥ 25
CCC1Oc2cc(S(=O)(=O)Nc3ccc(OC)cc3)c(Cl)cc2NC1=O (stereo not shown) [BC19211] | 1 to 25
O=C1COc2c(cc(Cl)cc2S(=O)(=O)Nc2ccc(Cl)cc2)N1 [BC19169] | < 1
CC1Oc2c(cc(Br)cc2S(=O)(=O)NCc2ccc(F)cc2F)NC1=O (stereo not shown) [BC19362] | ≥ 25
Cc1ccc(NS(=O)(=O)c2cc(Br)cc3c2OCCNC3=O)cc1 [BC19612] | ≥ 25
Cc1ccc(NS(=O)(=O)c2cc(Br)cc3c2OC(C)C(=O)N3C)cc1 (stereo not shown) [BC19906] | ≥ 25
CC1Oc2cc(S(=O)(=O)N3CCOCC3)c(Br)cc2NC1=O (stereo not shown) [BC19217] | ≥ 25
COc1ccc(NS(=O)(=O)c2cc3c(cc2Br)NC(=O)CCO3)cc1 [BC19692] | < 1
CCC1Oc2c(cc(Cl)cc2S(=O)(=O)Nc2cccc(Cl)c2)NC1=O (stereo not shown) [BC19752] | 1 to 25
CC(C)(C)C1CCC(NS(=O)(=O)c2cc3c(cc2Br)NC(=O)CO3)CC1 (stereo not shown) [BC19388] | ≥ 25
CS(=O)(=O)c1cc2c(c(S(=O)(=O)Nc3ccc(Cl)cc3)c1)OCC(=O)N2 [BC19483] | ≥ 25
Cc1ccc(NS(=O)(=O)c2cc3c(cc2C)NC(=O)CO3)cc1 [BC19134] | < 1
CC1Oc2cc(S(=O)(=O)Nc3ccc(F)cc3)c(Br)cc2N(C)C1=O (stereo not shown) [BC19910] | ≥ 25
CCC1Oc2c(cc(Br)cc2S(=O)(=O)NCCc2ccc(OC(F)(F)F)cc2)NC1=O (stereo not shown) [BC19376] | 1 to 25
CCc1ccc(NS(=O)(=O)c2cc(S(C)(=O)=O)cc3c2OCC(=O)N3)cc1 [BC19484] | ≥ 25
CC1Nc2cc(S(=O)(=O)N3CCCC3)ccc2NC1=O (stereo not shown) [BC19235] | ≥ 25
CC1Oc2c(cc(Br)cc2S(=O)(=O)Nc2ccc(F)cc2F)N(C)C1=O (stereo not shown) [BC19798] | ≥ 25

SMILES | IC50 [µM]
CC1Oc2cc(S(=O)(=O)Nc3cccc(Cl)c3)c(Br)cc2N(C)C1=O (stereo not shown) [BC19905] | ≥ 25
O=C1COc2c(cc(Br)cc2S(=O)(=O)Nc2ccc(F)c(F)c2)N1 [BC19177] | 1 to 25
Cc1ccc(NS(=O)(=O)c2cc3c(cc2Br)N(C)C(=O)C(C)O3)cc1 (stereo not shown) [BC19912] | ≥ 25
CCOc1ccc(NS(=O)(=O)c2cc(Cl)cc3c2OC(C)C(=O)N3)cc1 (stereo not shown) [BC19355] | 1 to 25
CCS(=O)(=O)c1cc2c(c(S(=O)(=O)Nc3ccc(F)cc3F)c1)OCC(=O)N2 [BC19545] | ≥ 25
CCC1Oc2c(cc(Br)cc2S(=O)(=O)Nc2ccc(F)c(F)c2)N(C)C1=O (stereo not shown) [BC19925] | 1 to 25
O=C1NCCOc2c1cc(Br)cc2S(=O)(=O)Nc1ccc(F)c(F)c1 [BC19551] | ≥ 25
CCC1Oc2c(cc(Cl)cc2S(=O)(=O)Nc2ccc(C)cc2)NC1=O (stereo not shown) [BC19754] | 1 to 25
CC1Oc2cc(S(=O)(=O)Nc3cccc(F)c3)c(Cl)cc2NC1=O (stereo not shown) [BC19713] | 1 to 25
CC1Oc2c(cc(Br)cc2S(=O)(=O)Nc2ccc(OC(F)(F)F)cc2)N(C)C1=O (stereo not shown) [BC19783] | 1 to 25
COc1ccc(NS(=O)(=O)c2cc3c(cc2Br)NC(=O)C(CC(C)C)O3)cc1Cl (stereo not shown) [BC19780] | 1 to 25
CCOc1ccc(NS(=O)(=O)c2cc(Br)cc3c2OCC(=O)N3)cc1 [BC19173] | ≥ 25
O=C1COc2c(cc(Br)cc2S(=O)(=O)NCc2ccc(C(F)(F)F)cc2)N1 [BC19382] | 1 to 25
Cc1ccc(NS(=O)(=O)c2cc(Br)cc3c2OCCNC3=O)cc1F [BC19552] | ≥ 25
CCc1cccc(NS(=O)(=O)c2cc3c(cc2Br)NC(=O)C(CC(C)C)O3)c1 (stereo not shown) [BC19772] | 1 to 25
Cc1cc2c(cc1S(=O)(=O)Nc1ccc(Cl)cc1)OCC(=O)N2 [BC19131] | < 1
CS(=O)(=O)c1cc2c(c(S(=O)(=O)Nc3cccc(Cl)c3)c1)OCC(=O)N2 [BC19427] | ≥ 25
O=C1CCOc2cc(S(=O)(=O)Nc3cccc(F)c3)c(Br)cc2N1 [BC19654] | ≥ 25
CCC1Oc2cc(S(=O)(=O)Nc3ccc(C)c(F)c3)c(Cl)cc2NC1=O (stereo not shown) [BC19212] | 1 to 25
COc1ccc(NS(=O)(=O)c2cc(Br)cc3c2OCC(=O)N3)cc1 [BC19175] | ≥ 25
CCC1Oc2c(cc(Br)cc2S(=O)(=O)Nc2ccc(C(C)C)cc2)N(C)C1=O (stereo not shown) [BC19933] | ≥ 25
CCc1ccc(NS(=O)(=O)c2cc3c(cc2Cl)NC(=O)C(CC)O3)cc1 (stereo not shown) [BC19741] | 1 to 25

SMILES | IC50 [µM]
CCC1Oc2c(cc(Br)cc2S(=O)(=O)NCc2ccc(F)cc2F)NC1=O (stereo not shown) [BC19374] | ≥ 25
O=C1NCCOc2c1cc(Br)cc2S(=O)(=O)Nc1ccc(F)cc1Cl [BC19613] | ≥ 25
O=C1COc2cc(S(=O)(=O)Nc3ccc(OC(F)(F)F)cc3)c(Cl)cc2N1 [BC19164] | < 1
CC1Oc2c(cc(Br)cc2S(=O)(=O)Nc2cccc(F)c2)N(C)C1=O (stereo not shown) [BC19902] | ≥ 25
O=C(O)c1cc2c(c(NS(=O)(=O)c3ccc(F)c(F)c3)c1)N1CCCC1C(=O)N2 (stereo not shown) [BC19917] | 1 to 25
CCc1cccc(NS(=O)(=O)c2cc3c(cc2Br)NC(=O)CCO3)c1 [BC19657] | ≥ 25
COc1ccc(NS(=O)(=O)c2cc3c(cc2Br)NC(=O)CO3)cc1 [BC19137] | < 1
CC1Oc2c(cc(Cl)cc2S(=O)(=O)Nc2ccc(OC(F)(F)F)cc2)NC1=O (stereo not shown) [BC19394] | ≥ 25
CCC1Oc2c(cc(Br)cc2S(=O)(=O)Nc2ccc(OC(F)(F)F)cc2)N(C)C1=O (stereo not shown) [BC19921] | 1 to 25
CCc1ccc(NS(=O)(=O)c2cc(Br)cc3c2OC(CC)C(=O)N3C)cc1 (stereo not shown) [BC19931] | ≥ 25
CC(C)CC1Oc2cc(S(=O)(=O)Nc3ccc(C(C)C)cc3)c(Br)cc2NC1=O (stereo not shown) [BC19766] | ≥ 25
Cc1ccc(NS(=O)(=O)c2cc(Cl)cc3c2OC(C)C(=O)N3)cc1F (stereo not shown) [BC19701] | 1 to 25
COc1ccc(NS(=O)(=O)c2cc(Br)cc3c2OCC(=O)N3)cc1Cl [BC19171] | 1 to 25
CCC1Oc2c(cc(Cl)cc2S(=O)(=O)Nc2ccc(Cl)cc2)NC1=O (stereo not shown) [BC19740] | 1 to 25
O=C1CCOc2c(cc(Br)cc2S(=O)(=O)Nc2cccc(Cl)c2)N1 [BC19650] | ≥ 25
CCC1Oc2c(cc(Br)cc2S(=O)(=O)Nc2ccc(F)cc2F)N(C)C1=O (stereo not shown) [BC19913] | 1 to 25
O=C1NCCOc2c1cc(Br)cc2S(=O)(=O)Nc1ccc(OC(F)(F)F)cc1 [BC19550] | ≥ 25
O=C1CCOc2c(cc(Br)cc2S(=O)(=O)Nc2ccc(Cl)cc2)N1 [BC19685] | ≥ 25
Cc1ccc(NS(=O)(=O)c2cc(Br)cc3c2OC(C)C(=O)N3)cc1Cl (stereo not shown) [BC19225] | ≥ 25
CC1Oc2c(cc(Cl)cc2S(=O)(=O)Nc2ccc(C(C)C)cc2)NC1=O (stereo not shown) [BC19705] | 1 to 25
CC(C)CC(=O)N1c2cc(S(=O)(=O)N3CCCC3)ccc2NC(=O)C1C (stereo not shown) [BC19184] | 1 to 25
CC1Oc2cc(S(=O)(=O)Nc3ccccc3)c(Cl)cc2NC1=O (stereo not shown) [BC19206] | ≥ 25

SMILES | IC50 [µM]
CCS(=O)(=O)c1cc2c(c(S(=O)(=O)Nc3cccc(Cl)c3)c1)OCC(=O)N2 [BC19441] | ≥ 25
CC1Oc2c(cc(Br)cc2S(=O)(=O)Nc2ccc(F)c(F)c2)N(C)C1=O (stereo not shown) [BC19787] | ≥ 25
CC1Oc2c(cc(Cl)cc2S(=O)(=O)Nc2ccc(C#N)cc2)NC1=O (stereo not shown) [BC19730] | 1 to 25
CCC1Oc2cc(S(=O)(=O)Nc3ccccc3)c(Cl)cc2NC1=O (stereo not shown) [BC19737] | 1 to 25
CC1Oc2cc(S(=O)(=O)Nc3ccc(Cl)cc3)c(Cl)cc2NC1=O (stereo not shown) [BC19696] | 1 to 25
CC(C)c1ccc(NS(=O)(=O)c2cc(Br)cc3c2OCCC(=O)N3)cc1 [BC19687] | ≥ 25
CC1Oc2c(cc(Br)cc2S(=O)(=O)NC2CCC(C(C)(C)C)CC2)NC1=O (stereo not shown) [BC19367] | ≥ 25
O=C1NCCOc2c1cc(Br)cc2S(=O)(=O)Nc1cccc(F)c1 [BC19610] | 1 to 25
CCc1cccc(NS(=O)(=O)c2cc3c(cc2Cl)NC(=O)C(C)O3)c1 (stereo not shown) [BC19711] | ≥ 25
CC(C)c1ccc(NS(=O)(=O)c2cc(S(C)(=O)=O)cc3c2OCC(=O)N3)cc1 [BC19424] | ≥ 25
CC(C)CC1Oc2c(cc(Br)cc2S(=O)(=O)Nc2ccccc2)NC1=O (stereo not shown) [BC19761] | 1 to 25
N#Cc1ccc(NS(=O)(=O)c2cc3c(cc2Br)NC(=O)CCO3)cc1 [BC19695] | ≥ 25
CC(C)CC1Oc2cc(S(=O)(=O)Nc3ccc(F)cc3Cl)c(Br)cc2NC1=O (stereo not shown) [BC19778] | ≥ 25
CC(C)NS(=O)(=O)c1cc2c(cc1Cl)NC(=O)C(C)O2 (stereo not shown) [BC19207] | ≥ 25
CS(=O)(=O)c1cc2c(c(S(=O)(=O)Nc3ccccc3)c1)OCC(=O)N2 [BC19482] | ≥ 25
Cc1ccc(NS(=O)(=O)c2cc(Br)cc3c2OC(C)C(=O)N3C)cc1F (stereo not shown) [BC19785] | ≥ 25
CC(C)(C)C1CCC(NS(=O)(=O)c2cc(Br)cc3c2OCC(=O)N3)CC1 (stereo not shown) [BC19380] | ≥ 25
COc1ccc(NS(=O)(=O)c2cc(Br)cc3c2OC(CC(C)C)C(=O)N3)cc1Cl (stereo not shown) [BC19779] | ≥ 25
Cc1ccc(NS(=O)(=O)c2cc(Cl)cc3c2OCC(=O)N3)cc1Cl [BC19176] | < 1
